Measured values taken from publication PMC11046985 (Neuro-Oncology Advances, 2024).
Where two headings read alike, the source gives them in different places.

Tests used:
[1] = cited from earlier work
[2] = daily afatinib, recurrent glioblastoma; read-out: Cmax in plasma; cited from earlier work
[3] = system: U87EGFRvIII human glioblastoma cells; conditions: cited from earlier work
[4] = Afatinib plasma concentration, HPLC-MS/MS, phase I pulsatile afatinib; type: in vivo, human
Protocol: (§1) Pharmacokinetic (PK) data were obtained to guide optimal dose of afatinib. The time of maximum plasma concentration is reported between 2 and 5 hours after dosing.[18],[19]

[5] = system: progressive or recurrent brain cancers; test: Tumor response by MRI (RANO criteria), PFS, survival, cycles received; type: in vivo, human
Protocol: Tumor response was assessed by MRI after every 2 treatment cycles, or earlier if clinically indicated, according to the Response Assessment in Neuro-Oncology criteria.

[6] = Afatinib CSF concentration (lumbar puncture), HPLC-MS/MS; type: in vivo; conditions: human, oral
Protocol: as §1

[7] = 21 patients evaluable for efficacy
[8] = dose cohort 1 (80 mg every 4 days)
[9] = dose cohort 1 (80 mg every 4 days), 2 response-evaluable
[10] = dose cohort 2 (120 mg every 4 days)
[11] = dose cohort 2 (120 mg every 4 days), 3 response-evaluable
[12] = dose cohort 3 (180 mg every 4 days)
[13] = dose cohort 3 (180 mg every 4 days), 6 response-evaluable
[14] = dose cohort 4 (280 mg every 7 days), 10 response-evaluable

CN(C)C/C=C/C(=O)Nc1cc2c(Nc3ccc(F)c(Cl)c3)ncnc2cc1O[C@H]1CCOC1 [Afatinib]
Median concentration of afatinib in CSF ([1]; afatinib 40 mg daily, 11 patients, leptomeningeal metastases from NSCLC, steady-state day 8): 2.9 nM
Afatinib concentration in the CSF ([1]; daily afatinib, case of leptomeningeal carcinomatosis): 0.05 nM
Cmax [2]: ~24 nM
Inhibitory concentration of 25% (IC25) [3]: ~1000 nM
Highest afatinib level in blood, one patient ([4]; 120 mg every 4 days cohort): approximately 0.8 μM
Cmax ([4]; human, plasma, 3 hours (± 2 hours) post dosing, oral, all cohorts): < 392 ng/mL
Pre-dose (trough) afatinib levels in blood ([4]; pulse dosing, all cohorts): under 50 nM
Afatinib concentration in blood ([4]; subject 002, Cohort 1: 80 mg q4d, post dosing, C1D8): 12.323 ng/mL
Afatinib concentration in blood ([4]; subject 002, Cohort 1: 80 mg q4d, pre dosing, C1D8): 8.751 ng/mL
Afatinib concentration in blood ([4]; subject 002, Cohort 1: 80 mg q4d, pre dosing, C2D1): 11.693 ng/mL
Afatinib concentration in blood ([4]; subject 002, Cohort 1: 80 mg q4d, pre dosing, EOT (EoC2)): <LLOQ (EoC2)
Afatinib concentration in blood ([4]; subject 003, Cohort 1: 80 mg q4d, post dosing, C1D22): 30.096 ng/mL
Afatinib concentration in blood ([4]; subject 003, Cohort 1: 80 mg q4d, pre dosing, C1D22): 17.318 ng/mL
Afatinib concentration in blood ([4]; subject 004, Cohort 1: 80 mg q4d, pre dosing, C2D1): <LLOQ
Afatinib concentration in blood ([4]; subject 005, Cohort 2: 120 mg q4d, post dosing, C1D15): 37.68 ng/mL
Afatinib concentration in blood ([4]; subject 005, Cohort 2: 120 mg q4d, pre dosing, C2D1): 7.18 ng/mL
Afatinib concentration in blood ([4]; subject 006, Cohort 2: 120 mg q4d, post dosing, C1D15): 66.156 ng/mL
Afatinib concentration in blood ([4]; subject 006, Cohort 2: 120 mg q4d, pre dosing, C1D15): <LLOQ
Afatinib concentration in blood ([4]; subject 006, Cohort 2: 120 mg q4d, pre dosing, C2D1): 10.104 ng/mL
Afatinib concentration in blood ([4]; subject 006, Cohort 2: 120 mg q4d, pre dosing, C3D1): <LLOQ
Afatinib concentration in blood ([4]; subject 006, Cohort 2: 120 mg q4d, pre dosing, C4D1): 11.223 ng/mL
Afatinib concentration in blood ([4]; subject 008, Cohort 2: 120 mg q4d, post dosing, C1D8): 392.01 ng/mL
Afatinib concentration in blood ([4]; subject 008, Cohort 2: 120 mg q4d, pre dosing, C1D8): 22.243 ng/mL
Afatinib concentration in blood ([4]; subject 010, Cohort 3: 180 mg q4d, post dosing, C1D22): 324.265 ng/mL
Afatinib concentration in blood ([4]; subject 010, Cohort 3: 180 mg q4d, pre dosing, C1D22): 43.226 ng/mL
Afatinib concentration in blood ([4]; subject 011, Cohort 3: 180 mg q4d, post dosing, C1D8): 11.705 ng/mL
Afatinib concentration in blood ([4]; subject 011, Cohort 3: 180 mg q4d, pre dosing, C1D8): 11.616 ng/mL
Afatinib concentration in blood ([4]; subject 011, Cohort 3: 180 mg q4d, pre dosing, C3D1): 19.265 ng/mL
Afatinib concentration in blood ([4]; subject 012, Cohort 3: 180 mg q4d, post dosing, C1D15): 96.354 ng/mL
Afatinib concentration in blood ([4]; subject 012, Cohort 3: 180 mg q4d, post dosing, C2D1): 85.834 ng/mL
Afatinib concentration in blood ([4]; subject 012, Cohort 3: 180 mg q4d, pre dosing, C1D15): <LLOQ
Afatinib concentration in blood ([4]; subject 012, Cohort 3: 180 mg q4d, pre dosing, C2D1): <LLOQ
Afatinib concentration in blood ([4]; subject 012, Cohort 3: 180 mg q4d, pre dosing, EOT (EoC4)): 6.402 (EoC4) ng/mL
Afatinib concentration in blood ([4]; subject 013, Cohort 3: 180 mg q4d, pre dosing, C1D15): 10.374 ng/mL
Afatinib concentration in blood ([4]; subject 013, Cohort 3: 180 mg q4d, pre dosing, C2D1): 41.964 ng/mL
Afatinib concentration in blood ([4]; subject 013, Cohort 3: 180 mg q4d, pre dosing, C4D1): 6.787 ng/mL
Afatinib concentration in blood ([4]; subject 014, Expansion Cohort 3: 180 mg q4d, post dosing, C1D8): 60.605 ng/mL
Afatinib concentration in blood ([4]; subject 014, Expansion Cohort 3: 180 mg q4d, pre dosing, C1D8): 11.442 ng/mL
Afatinib concentration in blood ([4]; subject 015, Cohort 4: 280 mg q7d, post dosing, C1D15): 40.694 ng/mL
Afatinib concentration in blood ([4]; subject 015, Cohort 4: 280 mg q7d, pre dosing, EOT (EoC1)): <LLOQ (EoC1)
Afatinib concentration in blood ([4]; subject 016, Cohort 4: 280 mg q7d, post dosing, C1D15): 205.634 ng/mL
Afatinib concentration in blood ([4]; subject 017, Expansion Cohort 3: 180 mg q4d, post dosing, C1D15): 89.884 ng/mL
Afatinib concentration in blood ([4]; subject 017, Expansion Cohort 3: 180 mg q4d, pre dosing, C1D15): 10.425 ng/mL
Afatinib concentration in blood ([4]; subject 017, Expansion Cohort 3: 180 mg q4d, pre dosing, C2D1): 5.708 ng/mL
Afatinib concentration in blood ([4]; subject 017, Expansion Cohort 3: 180 mg q4d, pre dosing, C3D1): <LLOQ
Afatinib concentration in blood ([4]; subject 017, Expansion Cohort 3: 180 mg q4d, pre dosing, C4D1): 6.264 ng/mL
Afatinib concentration in blood ([4]; subject 018, Cohort 4: 280 mg q7d, post dosing, C1D15): 322.557 ng/mL
Afatinib concentration in blood ([4]; subject 018, Cohort 4: 280 mg q7d, post dosing, C2D1): 340.709 ng/mL
Afatinib concentration in blood ([4]; subject 018, Cohort 4: 280 mg q7d, pre dosing, C1D15): 9.603 ng/mL
Afatinib concentration in blood ([4]; subject 018, Cohort 4: 280 mg q7d, pre dosing, C2D1): 22.084 ng/mL
Afatinib concentration in blood ([4]; subject 018, Cohort 4: 280 mg q7d, pre dosing, C3D1): 14.169 ng/mL
Afatinib concentration in blood ([4]; subject 018, Cohort 4: 280 mg q7d, pre dosing, C4D1): 11.731 ng/mL
Afatinib concentration in blood ([4]; subject 018, Cohort 4: 280 mg q7d, pre dosing, EOT (EoC4)): 10.379 (EoC4) ng/mL
Afatinib concentration in blood ([4]; subject 019, Expansion Cohort 4: 280 mg q7d, post dosing, C1D8): 153.973 ng/mL
Afatinib concentration in blood ([4]; subject 019, Expansion Cohort 4: 280 mg q7d, pre dosing, C1D8): 9.857 ng/mL
Afatinib concentration in blood ([4]; subject 019, Expansion Cohort 4: 280 mg q7d, pre dosing, C2D1): 11.805 ng/mL
Afatinib concentration in blood ([4]; subject 019, Expansion Cohort 4: 280 mg q7d, pre dosing, EOT (EoC2)): <LLOQ (EoC2)
Afatinib concentration in blood ([4]; subject 020, Expansion Cohort 4: 280 mg q7d, post dosing, C1D15): 110.625 ng/mL
Afatinib concentration in blood ([4]; subject 020, Expansion Cohort 4: 280 mg q7d, pre dosing, C1D15): 8.586 ng/mL
Afatinib concentration in blood ([4]; subject 020, Expansion Cohort 4: 280 mg q7d, pre dosing, C2D1): 11.278 ng/mL
Afatinib concentration in blood ([4]; subject 021, Expansion Cohort 4: 280 mg q7d, post dosing, C1D15): 40.352 ng/mL
Afatinib concentration in blood ([4]; subject 021, Expansion Cohort 4: 280 mg q7d, pre dosing, C1D15): 5.966 ng/mL
Afatinib concentration in blood ([4]; subject 021, Expansion Cohort 4: 280 mg q7d, pre dosing, C2D1): <LLOQ
Afatinib concentration in blood ([4]; subject 021, Expansion Cohort 4: 280 mg q7d, pre dosing, EOT (C2D15)): <LLOQ (C2D15)
Disease stabilization, % of patients [5, 7]: 14.3%
Disease stabilization, No. of patients [5, 7]: 3
Partial response (RANO), % of patients [5, 7]: 9.5%
Partial response (RANO), No. of patients [5, 7]: 2
Progressive disease, No. of patients [5, 7]: Sixteen
Median overall survival ([5]; all patients): 10.3 months
PFS, Median [5, 8]: 44 days
PFS, Range [5, 8]: 32 to 56 days
Best Response CR, No. of patients [5, 9]: 0
Best Response PD, No. of patients [5, 9]: 2
Best Response PR, No. of patients [5, 9]: 0
Best Response SD, No. of patients [5, 9]: 0
PFS, Median [5, 10]: 42 days
PFS, Range [5, 10]: 29 to 106 days
Best Response CR, No. of patients [5, 11]: 0
Best Response PD, No. of patients [5, 11]: 2
Best Response PR, No. of patients [5, 11]: 1
Best Response SD, No. of patients [5, 11]: 0
PFS, Median [5, 12]: 78 days
PFS, Range [5, 12]: 20 to 261 days
Best Response CR, No. of patients [5, 13]: 0
Best Response PD, No. of patients [5, 13]: 4
Best Response PR, No. of patients [5, 13]: 0
Best Response SD, No. of patients [5, 13]: 2
PFS, Median ([5]; dose cohort 4 (280 mg every 7 days)): 56 days
Best Response CR, No. of patients [5, 14]: 0
Best Response PD, No. of patients [5, 14]: 8
Best Response PR, No. of patients [5, 14]: 1
Best Response SD, No. of patients [5, 14]: 1
Median overall survival ([5]; glioblastoma): 5.2 months
Median progression-free survival ([5]; overall): 2.0 months
Progression-free survival rate at 6 months (PFS6) ([5]; patients with glioblastoma (n = 16)): 0%
concentration at 3 h ([6]; 8 patients, approximately 3 hours after dosing in the first cycle, below lower limit of quantification): < 1.01 ng/mL
concentration at 3 h ([6]; not detected, lower limit of quantification): < 2.09 nM
